{"source": "PubChem BioAssay (NCI)", "test_in_all_cases": "growth of human tumour cells (NCI), 48 h", "key": {"A498 renal": {"tested_on": "A498 renal"}, "A549 NSCLC": {"tested_on": "A549 NSCLC"}, "ACHN renal": {"tested_on": "ACHN renal"}, "CAKI-1 renal": {"tested_on": "CAKI-1 renal"}, "CCRF-CEM leukemia": {"tested_on": "CCRF-CEM leukemia"}, "DU-145 prostate": {"tested_on": "DU-145 prostate"}, "EKVX NSCLC": {"tested_on": "EKVX NSCLC"}, "HCC-2998 colon": {"tested_on": "HCC-2998 colon"}, "HCT-15 colon": {"tested_on": "HCT-15 colon"}, "HL-60(TB) leukemia": {"tested_on": "HL-60(TB) leukemia"}, "HOP-62 NSCLC": {"tested_on": "HOP-62 NSCLC"}, "HOP-92 NSCLC": {"tested_on": "HOP-92 NSCLC"}, "HS 578T breast": {"tested_on": "HS 578T breast"}, "HT29 colon": {"tested_on": "HT29 colon"}, "IGROV1 ovarian": {"tested_on": "IGROV1 ovarian"}, "K-562 leukemia": {"tested_on": "K-562 leukemia"}, "KM12 colon": {"tested_on": "KM12 colon"}, "MALME-3M melanoma": {"tested_on": "MALME-3M melanoma"}, "MCF7 breast": {"tested_on": "MCF7 breast"}, "MDA-MB-231 breast": {"tested_on": "MDA-MB-231 breast"}, "MDA-MB-435": {"tested_on": "MDA-MB-435"}, "MOLT-4 leukemia": {"tested_on": "MOLT-4 leukemia"}, "NCI-H23 lung": {"tested_on": "NCI-H23 lung"}, "NCI-H460 lung": {"tested_on": "NCI-H460 lung"}, "NCI-H522 lung": {"tested_on": "NCI-H522 lung"}, "OVCAR-5 ovarian": {"tested_on": "OVCAR-5 ovarian"}, "OVCAR-8 ovarian": {"tested_on": "OVCAR-8 ovarian"}, "PC-3 prostate": {"tested_on": "PC-3 prostate"}, "RPMI-8226 leukemia": {"tested_on": "RPMI-8226 leukemia"}, "RXF 393 renal": {"tested_on": "RXF 393 renal"}, "SF-268 CNS": {"tested_on": "SF-268 CNS"}, "SF-295 CNS": {"tested_on": "SF-295 CNS"}, "SF-539 CNS": {"tested_on": "SF-539 CNS"}, "SK-MEL-2 melanoma": {"tested_on": "SK-MEL-2 melanoma"}, "SK-MEL-28 melanoma": {"tested_on": "SK-MEL-28 melanoma"}, "SK-MEL-5 melanoma": {"tested_on": "SK-MEL-5 melanoma"}, "SK-OV-3 ovarian": {"tested_on": "SK-OV-3 ovarian"}, "SN12C renal": {"tested_on": "SN12C renal"}, "SNB-19 CNS": {"tested_on": "SNB-19 CNS"}, "SNB-75 CNS": {"tested_on": "SNB-75 CNS"}, "SR leukemia": {"tested_on": "SR leukemia"}, "SW-620 colon": {"tested_on": "SW-620 colon"}, "T-47D breast": {"tested_on": "T-47D breast"}, "TK-10 renal": {"tested_on": "TK-10 renal"}, "U251 CNS": {"tested_on": "U251 CNS"}, "UACC-62 melanoma": {"tested_on": "UACC-62 melanoma"}, "UO-31 renal": {"tested_on": "UO-31 renal"}}, "note": "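96-well plates; 48 h exposure; 5 concentrations. Endpoints by linear interpolation between flanking doses. Not reached: highest tested concentration assigned. GI50: concentration for 50% inhibition of growth. TGI marks complete inhibition of growth.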", "data": [{"smiles": "Cc1[nH]nc2ccc(-c3nc4cnc(N5CCN(C)CC5)cn4c3Nc3ccc(F)cc3Br)cc12", "values": [{"measurement": "GI50", "setting": "A498 renal", "value": 1.32, "unit": "µM"}, {"measurement": "TGI", "setting": "A498 renal", "value": 2.78, "unit": "µM"}, {"measurement": "GI50", "setting": "A549 NSCLC", "value": 2.81, "unit": "µM"}, {"measurement": "TGI", "setting": "A549 NSCLC", "value": 20.5, "unit": "µM"}, {"measurement": "GI50", "setting": "ACHN renal", "value": 1.72, "unit": "µM"}, {"measurement": "TGI", "setting": "ACHN renal", "value": 3.39, "unit": "µM"}, {"measurement": "GI50", "setting": "CAKI-1 renal", "value": 2.23, "unit": "µM"}, {"measurement": "TGI", "setting": "CAKI-1 renal", "value": 6.51, "unit": "µM"}, {"measurement": "GI50", "setting": "CCRF-CEM leukemia", "value": 2.25, "unit": "µM"}, {"measurement": "TGI", "setting": "CCRF-CEM leukemia", "value": 7.08, "unit": "µM"}, {"measurement": "GI50", "setting": "DU-145 prostate", "value": 1.99, "unit": "µM"}, {"measurement": "TGI", "setting": "DU-145 prostate", "value": 3.93, "unit": "µM"}, {"measurement": "GI50", "setting": "EKVX NSCLC", "value": 1.87, "unit": "µM"}, {"measurement": "TGI", "setting": "EKVX NSCLC", "value": 5.39, "unit": "µM"}, {"measurement": "GI50", "setting": "HCC-2998 colon", "value": 2.11, "unit": "µM"}, {"measurement": "TGI", "setting": "HCC-2998 colon", "value": 5.18, "unit": "µM"}, {"measurement": "GI50", "setting": "HCT-15 colon", "value": 1.73, "unit": "µM"}, {"measurement": "TGI", "setting": "HCT-15 colon", "value": 3.38, "unit": "µM"}, {"measurement": "GI50", "setting": "HL-60(TB) leukemia", "value": 1.79, "unit": "µM"}, {"measurement": "TGI", "setting": "HL-60(TB) leukemia", "value": 4.81, "unit": "µM"}, {"measurement": "GI50", "setting": "HOP-62 NSCLC", "value": 2.23, "unit": "µM"}, {"measurement": "TGI", "setting": "HOP-62 NSCLC", "value": 6.69, "unit": "µM"}, {"measurement": "GI50", "setting": "HOP-92 NSCLC", "value": 1.59, "unit": "µM"}, {"measurement": "TGI", "setting": "HOP-92 NSCLC", "value": 3.67, "unit": "µM"}, {"measurement": "GI50", "setting": "HS 578T breast", "value": 2.44, "unit": "µM"}, {"measurement": "TGI", "setting": "HS 578T breast", "value": 6.43, "unit": "µM"}, {"measurement": "GI50", "setting": "HT29 colon", "value": 2.24, "unit": "µM"}, {"measurement": "TGI", "setting": "HT29 colon", "value": 5.08, "unit": "µM"}, {"measurement": "GI50", "setting": "IGROV1 ovarian", "value": 1.69, "unit": "µM"}, {"measurement": "TGI", "setting": "IGROV1 ovarian", "value": 3.46, "unit": "µM"}, {"measurement": "GI50", "setting": "K-562 leukemia", "value": 1.24, "unit": "µM"}, {"measurement": "TGI", "setting": "K-562 leukemia", "value": 7.56, "unit": "µM"}, {"measurement": "GI50", "setting": "KM12 colon", "value": 3.67, "unit": "µM"}, {"measurement": "TGI", "setting": "KM12 colon", "value": 16.4, "unit": "µM"}, {"measurement": "GI50", "setting": "MALME-3M melanoma", "value": 1.51, "unit": "µM"}, {"measurement": "TGI", "setting": "MALME-3M melanoma", "value": 3.14, "unit": "µM"}, {"measurement": "GI50", "setting": "MCF7 breast", "value": 1.48, "unit": "µM"}, {"measurement": "TGI", "setting": "MCF7 breast", "value": 2.9, "unit": "µM"}, {"measurement": "GI50", "setting": "MDA-MB-231 breast", "value": 1.84, "unit": "µM"}, {"measurement": "TGI", "setting": "MDA-MB-231 breast", "value": 4.02, "unit": "µM"}, {"measurement": "GI50", "setting": "MDA-MB-435", "value": 1.87, "unit": "µM"}, {"measurement": "TGI", "setting": "MDA-MB-435", "value": 3.83, "unit": "µM"}, {"measurement": "GI50", "setting": "MOLT-4 leukemia", "value": 2.85, "unit": "µM"}, {"measurement": "TGI", "setting": "MOLT-4 leukemia", "value": 9.43, "unit": "µM"}, {"measurement": "GI50", "setting": "NCI-H23 lung", "value": 1.83, "unit": "µM"}, {"measurement": "TGI", "setting": "NCI-H23 lung", "value": 3.6, "unit": "µM"}, {"measurement": "GI50", "setting": "NCI-H460 lung", "value": 2.03, "unit": "µM"}, {"measurement": "TGI", "setting": "NCI-H460 lung", "value": 4.35, "unit": "µM"}, {"measurement": "GI50", "setting": "NCI-H522 lung", "value": 2.01, "unit": "µM"}, {"measurement": "TGI", "setting": "NCI-H522 lung", "value": 4.72, "unit": "µM"}, {"measurement": "GI50", "setting": "OVCAR-5 ovarian", "value": 2.38, "unit": "µM"}, {"measurement": "TGI", "setting": "OVCAR-5 ovarian", "value": 7.94, "unit": "µM"}, {"measurement": "GI50", "setting": "OVCAR-8 ovarian", "value": 2.29, "unit": "µM"}, {"measurement": "TGI", "setting": "OVCAR-8 ovarian", "value": 6.31, "unit": "µM"}, {"measurement": "GI50", "setting": "PC-3 prostate", "value": 2.47, "unit": "µM"}, {"measurement": "TGI", "setting": "PC-3 prostate", "value": 10.2, "unit": "µM"}, {"measurement": "GI50", "setting": "RPMI-8226 leukemia", "value": 2.16, "unit": "µM"}, {"measurement": "TGI", "setting": "RPMI-8226 leukemia", "value": 5.07, "unit": "µM"}, {"measurement": "GI50", "setting": "RXF 393 renal", "value": 1.57, "unit": "µM"}, {"measurement": "TGI", "setting": "RXF 393 renal", "value": 3.2, "unit": "µM"}, {"measurement": "GI50", "setting": "SF-268 CNS", "value": 1.89, "unit": "µM"}, {"measurement": "TGI", "setting": "SF-268 CNS", "value": 4.11, "unit": "µM"}, {"measurement": "GI50", "setting": "SF-295 CNS", "value": 1.61, "unit": "µM"}, {"measurement": "TGI", "setting": "SF-295 CNS", "value": 3.29, "unit": "µM"}, {"measurement": "GI50", "setting": "SF-539 CNS", "value": 1.79, "unit": "µM"}, {"measurement": "TGI", "setting": "SF-539 CNS", "value": 3.61, "unit": "µM"}, {"measurement": "GI50", "setting": "SK-MEL-2 melanoma", "value": 2.84, "unit": "µM"}, {"measurement": "TGI", "setting": "SK-MEL-2 melanoma", "value": 7.9, "unit": "µM"}, {"measurement": "GI50", "setting": "SK-MEL-28 melanoma", "value": 1.69, "unit": "µM"}, {"measurement": "TGI", "setting": "SK-MEL-28 melanoma", "value": 3.2, "unit": "µM"}, {"measurement": "GI50", "setting": "SK-MEL-5 melanoma", "value": 1.74, "unit": "µM"}, {"measurement": "TGI", "setting": "SK-MEL-5 melanoma", "value": 3.25, "unit": "µM"}, {"measurement": "GI50", "setting": "SK-OV-3 ovarian", "value": 2.08, "unit": "µM"}, {"measurement": "TGI", "setting": "SK-OV-3 ovarian", "value": 5.09, "unit": "µM"}, {"measurement": "GI50", "setting": "SN12C renal", "value": 1.65, "unit": "µM"}, {"measurement": "TGI", "setting": "SN12C renal", "value": 3.34, "unit": "µM"}, {"measurement": "GI50", "setting": "SNB-19 CNS", "value": 2.87, "unit": "µM"}, {"measurement": "TGI", "setting": "SNB-19 CNS", "value": 10.4, "unit": "µM"}, {"measurement": "GI50", "setting": "SNB-75 CNS", "value": 1.22, "unit": "µM"}, {"measurement": "TGI", "setting": "SNB-75 CNS", "value": 2.57, "unit": "µM"}, {"measurement": "GI50", "setting": "SR leukemia", "value": 0.303, "unit": "µM"}, {"measurement": "TGI", "setting": "SR leukemia", "value": "> 100", "unit": "µM"}, {"measurement": "GI50", "setting": "SW-620 colon", "value": 2.9, "unit": "µM"}, {"measurement": "TGI", "setting": "SW-620 colon", "value": 11, "unit": "µM"}, {"measurement": "GI50", "setting": "T-47D breast", "value": 1.95, "unit": "µM"}, {"measurement": "TGI", "setting": "T-47D breast", "value": 5.07, "unit": "µM"}, {"measurement": "GI50", "setting": "TK-10 renal", "value": 2.82, "unit": "µM"}, {"measurement": "TGI", "setting": "TK-10 renal", "value": 8.83, "unit": "µM"}, {"measurement": "GI50", "setting": "U251 CNS", "value": 2.43, "unit": "µM"}, {"measurement": "TGI", "setting": "U251 CNS", "value": 8.04, "unit": "µM"}, {"measurement": "GI50", "setting": "UACC-62 melanoma", "value": 1.64, "unit": "µM"}, {"measurement": "TGI", "setting": "UACC-62 melanoma", "value": 3.22, "unit": "µM"}, {"measurement": "GI50", "setting": "UO-31 renal", "value": 1.34, "unit": "µM"}, {"measurement": "TGI", "setting": "UO-31 renal", "value": 2.93, "unit": "µM"}]}]}
